Assay results taken from patent US20130184222A1, “[…] ACTIVE COMPOSITIONS AND THEIR METHODS OF USE” (AGIOS PHARMACEUTICALS, INC, priority 2010, published 2013).

Target: IDH1 R132H (Homo sapiens, UniProt O75874, R132H)
Assay: In vitro assay for IDH1 R132H inhibitors (NADPH/aKG, resazurin detection)
Type: biochemical
Conditions: Table 4A; 0.2 μg/ml IDH1 R132H, 50 minutes at room temperature; read-out: IC50 (uM), IDH1 R132H Inhibition
Experimental: Assays were conducted in a volume of 76 μl assay buffer (150 mM NaCl, 10 mM MgCl2, 20 mM Tris pH 7.5, 0.03% bovine serum albumin) as follows in a standard 384-well plate: To 25 ul of substrate mix (8 uM NADPH, 2 mM aKG), 1 μl of test compound was added in DMSO. The plate was centrifuged briefly, and then 25 μl of enzyme mix was added (0.2 μg/ml IDH1 R132H) followed by a brief centrifugation and shake at 100 RPM. The reaction was incubated for 50 minutes at room temperature, then 25 μl of detection mix (30 μM resazurin, […]) was added and the mixture further incubated for 5 minutes at room temperature. The conversion of resazurin to resorufin was detected by fluorescent spectroscopy at Ex544 Em590 c/o 590.
The compounds of Formula I set forth in Table 1 and the compounds set forth in Table 2 were tested in this assay and the results set forth below in Table 4A and 4B.

IDH1 R132H, sequence (O75874 whole entry R132H): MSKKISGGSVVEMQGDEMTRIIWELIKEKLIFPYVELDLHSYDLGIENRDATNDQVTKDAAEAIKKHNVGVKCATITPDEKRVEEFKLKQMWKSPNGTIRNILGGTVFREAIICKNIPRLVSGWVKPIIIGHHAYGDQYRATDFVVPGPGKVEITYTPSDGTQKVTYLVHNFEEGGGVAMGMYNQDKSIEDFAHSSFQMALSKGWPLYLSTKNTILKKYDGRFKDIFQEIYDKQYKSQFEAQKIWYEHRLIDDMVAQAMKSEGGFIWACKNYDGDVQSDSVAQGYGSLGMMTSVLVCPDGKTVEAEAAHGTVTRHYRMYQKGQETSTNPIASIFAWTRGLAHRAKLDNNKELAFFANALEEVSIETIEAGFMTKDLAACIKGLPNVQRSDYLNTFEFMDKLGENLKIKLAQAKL

SMILES | IC50 [µM]
O=C(NC1CCCC1)C(c1ccccc1F)N(C(=O)Cc1cccs1)c1ccc2c(c1)OCO2 (stereo not drawn) [Compound 6] | 0.1 to 1
Cc1ccccc1C(C(=O)NC1CCCCC1)N(C)C(=O)Cc1cccs1 (stereo not drawn) [Compound 40] | ≥ 100
Cc1ccccc1C(C(=O)NC1CCCCC1)N(C(=O)c1ccccn1)c1cccc(F)c1 (stereo not drawn) [Compound 32] | 1 to 10
CC(C(=O)NCc1ccccc1)(c1cccc(F)c1)N(C(=O)Cc1cccs1)c1ccccc1 (stereo not drawn) [Compound 12] | 10 to 100
O=C(NC1CCCCC1)C(c1ccccc1F)N(C(=O)c1ccccn1)c1ccccc1F (stereo not drawn) [Compound 60] | 0.1 to 1
CCC(C(=O)NC1CCCC1)N(C(=O)Cc1cccs1)c1cccc(F)c1 (stereo not drawn) [Compound 18] | ≥ 100
O=C(NC1CCCCC1)C(c1ccccc1)N(C(=O)c1ccccn1)c1ccccc1F (stereo not drawn) [Compound 58] | 1 to 10
Cc1ccccc1C(C(=O)NC1CCCC1)N(C(=O)Cc1cccs1)c1ccccc1F (stereo not drawn) [Compound 46] | 0.1 to 1
CC(C)C(C(=O)NC1CCCC1)N(C(=O)Cc1cccs1)c1cccc(F)c1 (stereo not drawn) [Compound 16] | ≥ 100
Cc1ccccc1C(C(=O)NC1CCCC1)N(C(=O)c1ccccn1)c1cccc(F)c1 (stereo not drawn) [Compound 72] | 1 to 10
Cc1ccc(N(C(=O)c2ccccn2)C(C(=O)NC2CCCCC2)c2ccccc2)cc1F (stereo not drawn) [Compound 7] | 1 to 10
Cc1ccccc1C(C(=O)NC1CCCCC1)N(C(=O)Cc1cccs1)c1ccccc1 (stereo not drawn) [Compound 42] | 0.1 to 1
O=C(Cc1cccs1)N(c1cccc(F)c1)C1(C(=O)NC2CCCC2)CCCCC1 [Compound 24] | 1 to 10
CCCCc1ccc(C(C(=O)NC2CCCCC2)N(C(=O)Cc2cccs2)c2cccc(F)c2)cc1 (stereo not drawn) [Compound 86] | ≥ 100
Cc1ccccc1C(C(=O)NC1CCCCC1)N(C(=O)Cc1cccs1)c1cccc(F)c1 (stereo not drawn) [Compound 15] | ≤ 0.1
O=C(NC1CCCCC1)C(c1ccccc1)N(C(=O)Cc1cccs1)c1ccccc1F (stereo not drawn) [Compound 36] | 0.1 to 1
O=C(NC1CCCCC1)C(c1ccccc1Cl)N(C(=O)Cc1cccs1)c1ccccc1F (stereo not drawn) [Compound 35] | 0.1 to 1
COc1cccc(C(C(=O)NC2CCCCC2)N(C(=O)Cc2cccs2)c2cccc(F)c2)c1 (stereo not drawn) [Compound 49] | 0.1 to 1
O=C(NC1CCCCC1)C(c1ccc(-n2ccnc2)cc1)N(C(=O)Cc1cccs1)c1cccc(F)c1 (stereo not drawn) [Compound 83] | 10 to 100
O=C(NC1CCCC1)C(c1ccccc1Cl)N(C(=O)Cc1cccs1)c1ccccc1F (stereo not drawn) [Compound 2] | 0.1 to 1
O=C(NC1CCCCC1)C(c1ccccc1F)N(C(=O)c1ccccn1)c1cccc(F)c1 (stereo not drawn) [Compound 33] | 0.1 to 1
O=C(NC1CCCCC1)C(c1ccc(Cl)cc1)N(C(=O)Cc1cccs1)c1cccc(F)c1 (stereo not drawn) [Compound 79] | 0.1 to 1
Cc1ccccc1C(C(=O)NC1CCCCC1)N(Cc1ccccc1)C(=O)Cc1cccs1 (stereo not drawn) [Compound 71] | 1 to 10
Cc1ccccc1[C@H](C(=O)NC1CCCCC1)N(C(=O)Cc1cccs1)c1cccc(F)c1 [Compound 53] | 1 to 10

Further lines, results first:

IC50 [µM] | SMILES
≥ 100 | CC(C)Cc1ccc(C(C(=O)NC2CCCCC2)N(C(=O)Cc2cccs2)c2cccc(F)c2)cc1 (stereo not drawn) [Compound 88]
0.1 to 1 | O=C(NC1CCCCC1)C(c1cccs1)N(C(=O)Cc1cccs1)c1cccc(F)c1 (stereo not drawn) [Compound 94]
0.1 to 1 | O=C(NC1CCCCC1)C(c1ccc(Br)o1)N(C(=O)Cc1cccs1)c1cccc(F)c1 (stereo not drawn) [Compound 87]
0.1 to 1 | CCCCCCCCOc1ccc(C(C(=O)NC2CCCCC2)N(C(=O)Cc2cccs2)c2cccc(F)c2)cc1 (stereo not drawn) [Compound 93]
1 to 10 | O=C(NC1CCCCC1)C(c1cccc(C(F)(F)F)c1)N(C(=O)Cc1cccs1)c1cccc(F)c1 (stereo not drawn) [Compound 96]
≤ 0.1 | Cc1cccc(N(C(=O)Cc2cccs2)C(C(=O)NC2CCCCC2)c2ccccc2C)c1 (stereo not drawn) [Compound 99]
0.1 to 1 | Cc1cccc(C(C(=O)NC2CCCCC2)N(C(=O)Cc2cccs2)c2cccc(F)c2)c1 (stereo not drawn) [Compound 89]

Same assay, conditions: Table 4B; 0.2 μg/ml IDH1 R132H, 50 minutes at room temperature; read-out: IC50, IDH1 R132H Inhibition

IC50 [µM] | SMILES
0.1 to 1 | Cc1ccccc1C(C(=O)NC1CCCCC1)N(C(=O)c1c(C)noc1C)c1cccc(F)c1 (stereo not drawn) [Compound 139]
0.1 to 1 | CNC(=O)N1CCC[C@@H]1C(=O)N(c1cccc(F)c1)[C@H](C(=O)NC1CCCCC1)c1ccccc1C [Compound 375]
0.1 to 1 | Cc1ccccc1C(C(=O)NC1CCCCC1)N(C(=O)Cc1cccs1)c1cccc(Br)c1 (stereo not drawn) [Compound 146]
0.1 to 1 | Cc1ccccc1C(C(=O)NC1CCCCC1)N(C(=O)Cn1nnc2ccccc21)c1cccc(F)c1 (stereo not drawn) [Compound 151]
0.1 to 1 | Cc1ccccc1C(C(=O)NC1CCCCC1)N(C(=O)Cn1ccnc1)c1cccc(F)c1 (stereo not drawn) [Compound 156]
0.1 to 1 | Cc1ccccc1C(C(=O)NC1CCCCC1)N(C(=O)Cc1cccs1)c1ccccc1Cl (stereo not drawn) [Compound 147]
0.1 to 1 | Cc1ccccc1C(C(=O)NC1CCCCC1)N(C(=O)CNC1CCCC1)c1cccc(F)c1 (stereo not drawn) [Compound 121]
0.1 to 1 | O=C(NC1CCCCC1)C(c1cccc(F)c1)N(C(=O)Cc1cccs1)c1cccc(F)c1 (stereo not drawn) [Compound 137]
≤ 0.1 | Cc1ccccc1C(C(=O)NC1CCCCC1)N(C(=O)Cc1cccs1)c1cccc(Cl)c1 (stereo not drawn) [Compound 140]
0.1 to 1 | CCOC(=O)N1CCC[C@@H]1C(=O)N(c1cccc(F)c1)[C@H](C(=O)NC1CCCCC1)c1ccccc1C [Compound 360]
0.1 to 1 | Cc1ccccc1C(C(=O)NC1CCCCC1)N(Cc1cccs1)C(=O)CNCc1ccncc1 (stereo not drawn) [Compound 169]
0.1 to 1 | O=C(NC1CCCCC1)C(c1c(Br)ccc(Br)c1F)N(C(=O)Cc1cccs1)c1cccc(F)c1 (stereo not drawn) [Compound 114]
0.1 to 1 | Cc1ccccc1C(C(=O)NC1CCCCC1)N(C(=O)Cc1cccs1)c1cccc(N2CCOCC2)c1 (stereo not drawn) [Compound 123]
0.1 to 1 | Cc1ccccc1C(C(=O)NC1CCCCC1)N(C(=O)CNC(=O)OC(C)(C)C)c1cccc(F)c1 (stereo not drawn) [Compound 368]
0.1 to 1 | O=C(NC1CCCCC1)C(c1c(F)ccc(F)c1Cl)N(C(=O)Cc1cccs1)c1cccc(F)c1 (stereo not drawn) [Compound 105]
0.1 to 1 | Cc1ccccc1C(C(=O)NC1CCCCC1)N(C(=O)CNC1CCC1)c1cccc(F)c1 (stereo not drawn) [Compound 120]
≤ 0.1 | O=C(NC1CCCCC1)C(c1ccccc1Cl)N(C(=O)Cn1cnc(Cl)c1Cl)c1cccc(F)c1 (stereo not drawn) [Compound 383]
0.1 to 1 | Cc1ccccc1C(C(=O)NC1CCCCC1)N(C(=O)C1COc2ccccc2O1)c1cccc(F)c1 (stereo not drawn) [Compound 125]
0.1 to 1 | Cc1ccccc1C(C(=O)NC1CCCCC1)N(C(=O)COc1ccccc1)c1cccc(F)c1 (stereo not drawn) [Compound 136]
1 to 10 | Cc1ccccc1C(C(=O)NC1CCCCC1)N(Cc1cccs1)C(=O)CN1CCCc2ccccc21 (stereo not drawn) [Compound 168]
0.1 to 1 | Cc1ccccc1C(C(=O)NC(C)(C)C)N(C(=O)Cc1cccs1)c1cccc(F)c1 (stereo not drawn) [Compound 109]
0.1 to 1 | Cc1ccccc1C(C(=O)NC1CCCCC1)N(C(=O)c1ccc2c(c1)OCO2)c1cccc(F)c1 (stereo not drawn) [Compound 132]
0.1 to 1 | Cc1ccccc1C(C(=O)NC1CCCCC1)N(C(=O)CN1CCc2ccccc2C1)c1cccc(F)c1 (stereo not drawn) [Compound 143]
0.1 to 1 | Cc1ccccc1C(C(=O)NC1CCOCC1)N(C(=O)Cc1cccs1)c1cccc(F)c1 (stereo not drawn) [Compound 159]
0.1 to 1 | Cc1ccccc1NC(=O)C(c1ccccc1C)N(C(=O)Cc1cccs1)c1cccc(F)c1 (stereo not drawn) [Compound 110]

SMILES | IC50 [µM]
Cc1ccccc1C(C(=O)NC1CCCCC1)N(C(=O)Cc1ccc(OC(=O)N2CCN(C)CC2)cc1)c1cccc(F)c1 (stereo not drawn) [Compound 277] | 1 to 10
